Source: ChEMBL document CHEMBL4011587, “Design, synthesis and evaluation of novel ferulic acid-O-alkylamine derivatives as potential multifunctional agents for the treatment of Alzheimer's disease” (Eur J Med Chem, 2017)
Active and inactive are the calls of the source. The calls are words filed in the database; no cut-off is given here.

Tests used:
PC-12 [1] = experiment: Protection against H2O2-induced oxidative injury in rat PC12 cells assessed as increase in cell viability pretreated for 2 hrs followed by H2O2 challenge for 30 mins measured after 24 hrs by MTT assay; type: functional, cell-based
Mus musculus [2] = experiment: Reversal of scopolamine-induced memory deficit in Kunming mouse assessed as increase in step down latency time administered orally treated for 1 hr before training followed by scopolamine challenge 30 mins before training measured 24 hrs after training trial by passive avoidance test; type: functional
Mus musculus [3] = experiment: Acute toxicity in Kunming mouse assessed as effect on food consumption up to 1000 mg/kg, po measured after 4 hrs up to 14 days; type: organism-based; conditions: in vivo
Mus musculus [4] = experiment: Acute toxicity in Kunming mouse assessed as liver damage up to 1000 mg/kg, po measured after 14 days by macroscopic method; type: organism-based; conditions: in vivo, 336 h
[5] = Antioxidant activity assessed as inhibition of AAPH-induced peroxyl radical generation measured as trolox equivalent at 1 to 10 uM preincubated for 15 mins followed by AAPH addition measured every minute for 90 mins by ORAC-FL assay; type: functional
Mus musculus [6] = experiment: Acute toxicity in Kunming mouse assessed as change in body weight up to 1000 mg/kg, po measured after 4 hrs up to 14 days; type: organism-based; conditions: in vivo
[7] = target: Amyloid-beta precursor protein (Homo sapiens) (UniProt P05067); experiment: Inhibition of amyloid beta (1 to 42) (unknown origin) fibril formation at 25 uM after 24 hrs by transmission electron microscopic method
Chain of Amyloid-beta precursor protein (Homo sapiens) (P05067 whole entry): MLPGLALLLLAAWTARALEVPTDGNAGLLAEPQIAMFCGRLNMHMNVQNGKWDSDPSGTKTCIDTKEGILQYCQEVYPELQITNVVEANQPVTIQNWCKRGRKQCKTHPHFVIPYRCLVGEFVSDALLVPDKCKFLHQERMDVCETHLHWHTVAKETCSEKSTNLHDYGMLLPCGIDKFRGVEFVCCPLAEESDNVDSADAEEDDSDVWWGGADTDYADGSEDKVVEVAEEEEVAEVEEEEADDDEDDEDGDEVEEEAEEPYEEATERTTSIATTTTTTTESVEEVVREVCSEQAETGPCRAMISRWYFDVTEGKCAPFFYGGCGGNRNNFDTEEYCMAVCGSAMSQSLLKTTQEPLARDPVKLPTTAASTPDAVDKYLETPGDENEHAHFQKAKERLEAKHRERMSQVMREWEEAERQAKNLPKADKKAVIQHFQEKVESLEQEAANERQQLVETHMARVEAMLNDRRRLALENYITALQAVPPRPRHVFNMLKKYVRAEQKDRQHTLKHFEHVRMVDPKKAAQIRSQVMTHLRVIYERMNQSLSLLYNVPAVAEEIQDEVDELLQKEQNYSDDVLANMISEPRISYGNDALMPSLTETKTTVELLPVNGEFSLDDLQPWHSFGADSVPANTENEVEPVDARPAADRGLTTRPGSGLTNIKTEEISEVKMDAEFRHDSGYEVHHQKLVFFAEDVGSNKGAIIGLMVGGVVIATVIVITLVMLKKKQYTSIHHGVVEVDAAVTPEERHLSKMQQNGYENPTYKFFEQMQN

PC-12 [8] = experiment: Protection against H2O2-induced oxidative injury in rat PC12 cells assessed as cell viability at 1 uM pretreated for 2 hrs followed by H2O2 challenge for 30 mins measured after 24 hrs by MTT assay (reference value: 50.7%); type: functional; conditions: read-out: Activity
Cholinesterase [9] = target: Cholinesterase (Equus caballus, UniProt P81908); experiment: Inhibition of equine serum BuChE using butyrylthiocholine chloride as substrate measured after 15 mins by Ellman's method
Chain of Cholinesterase (Equus caballus, UniProt P81908) (P81908 whole entry): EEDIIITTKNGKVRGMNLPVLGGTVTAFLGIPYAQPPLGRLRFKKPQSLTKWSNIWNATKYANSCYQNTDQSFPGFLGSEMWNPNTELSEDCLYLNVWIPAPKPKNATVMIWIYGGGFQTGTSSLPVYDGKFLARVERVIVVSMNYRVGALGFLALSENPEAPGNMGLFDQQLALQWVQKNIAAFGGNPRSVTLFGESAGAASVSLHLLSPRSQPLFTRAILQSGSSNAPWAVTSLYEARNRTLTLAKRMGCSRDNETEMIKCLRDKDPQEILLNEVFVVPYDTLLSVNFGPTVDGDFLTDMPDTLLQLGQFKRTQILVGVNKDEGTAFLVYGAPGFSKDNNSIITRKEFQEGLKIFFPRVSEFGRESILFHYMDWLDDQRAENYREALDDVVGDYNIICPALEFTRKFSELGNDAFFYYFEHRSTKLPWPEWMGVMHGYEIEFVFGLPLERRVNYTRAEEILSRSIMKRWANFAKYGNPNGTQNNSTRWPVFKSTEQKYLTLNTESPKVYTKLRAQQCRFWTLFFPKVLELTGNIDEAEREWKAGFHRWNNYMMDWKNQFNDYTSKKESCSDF

[10] = Inhibition of BuChE in rat serum using butyrylthiocholine chloride as substrate measured after 15 mins by Ellman's method; conditions: 0.25 h
[11] = Selectivity index, ratio of IC50 for electric eel AChE to IC50 for equine serum BuChE
PC-12 [12] = experiment: Protection against H2O2-induced oxidative injury in rat PC12 cells assessed as cell viability at 10 uM pretreated for 2 hrs followed by H2O2 challenge for 30 mins measured after 24 hrs by MTT assay (reference value: 50.7%); type: functional; conditions: read-out: Activity
[13] = Selectivity index, ratio of IC50 for AChE in human erythrocytes to IC50 for BuChE in human serum
Mus musculus [14] = experiment: Acute toxicity in Kunming mouse assessed as kidney damage up to 1000 mg/kg, po measured after 14 days by macroscopic method; type: organism-based; conditions: in vivo, 336 h
Acetylcholinesterase [15] = target: Acetylcholinesterase (Homo sapiens, UniProt P22303); experiment: Inhibition of AChE in human erythrocytes using acetylthiocholine chloride as substrate measured after 15 mins by Ellman's method; type: cell-based
Chain of Acetylcholinesterase (Homo sapiens, UniProt P22303) (P22303 whole entry): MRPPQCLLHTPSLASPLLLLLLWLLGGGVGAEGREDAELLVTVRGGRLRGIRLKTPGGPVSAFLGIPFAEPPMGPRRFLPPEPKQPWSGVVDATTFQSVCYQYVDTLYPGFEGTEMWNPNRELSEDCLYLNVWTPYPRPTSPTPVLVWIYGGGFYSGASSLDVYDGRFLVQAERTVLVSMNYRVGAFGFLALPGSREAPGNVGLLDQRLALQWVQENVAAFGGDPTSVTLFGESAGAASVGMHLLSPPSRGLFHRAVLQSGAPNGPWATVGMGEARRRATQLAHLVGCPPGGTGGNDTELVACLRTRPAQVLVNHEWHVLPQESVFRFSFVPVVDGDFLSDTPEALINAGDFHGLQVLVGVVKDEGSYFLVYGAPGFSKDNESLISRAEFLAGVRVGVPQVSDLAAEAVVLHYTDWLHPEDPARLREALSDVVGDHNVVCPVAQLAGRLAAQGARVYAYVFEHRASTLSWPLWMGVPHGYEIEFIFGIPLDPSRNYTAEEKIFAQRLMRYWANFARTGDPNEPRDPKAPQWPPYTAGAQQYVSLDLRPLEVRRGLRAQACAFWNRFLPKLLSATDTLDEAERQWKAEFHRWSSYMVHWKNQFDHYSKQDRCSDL

[16] = Cytotoxicity against rat PC12 cells assessed as cell viability at 100 uM after 48 hrs by MTT assay relative to control; type: cell-based, PC-12; conditions: read-out: Activity
[17] = target: Amyloid-beta precursor protein (Homo sapiens) (UniProt P05067); experiment: Inhibition of amyloid beta (1 to 42) (unknown origin) self-aggregation at 25 uM after 24 hrs by thioflavin-T fluorescence assay relative to control
Mus musculus [18] = experiment: Acute toxicity in Kunming mouse assessed as effect on fur sleekness up to 1000 mg/kg, po measured after 4 hrs up to 14 days; type: organism-based; conditions: in vivo
Mus musculus [19] = experiment: Reversal of scopolamine-induced memory deficit in Kunming mouse assessed as step down latency time at 21.3 mg/kg, po treated for 1 hr before training followed by scopolamine challenge 30 mins before training measured 24 hrs after training trial by passive avoidance test (reference value: 50.5 sec); type: functional
PC-12 [20] = experiment: Cytotoxicity against rat PC12 cells assessed as cell viability up to 10 uM after 48 hrs by MTT assay; type: cell-based; conditions: pc-12, 48 h
[21] = target: Amyloid-beta precursor protein (Homo sapiens) (UniProt P05067); experiment: Disaggregation of amyloid beta (1 to 42) (unknown origin) self aggregation at 25 uM after 24 hrs by transmission electron microscopic method
[22] = target: Amyloid-beta precursor protein (Homo sapiens) (UniProt P05067); experiment: Inhibition of amyloid beta (1 to 42) (unknown origin) self-aggregation at 50 uM after 24 hrs by thioflavin-T fluorescence assay relative to control
[23] = target: Amyloid-beta precursor protein (Homo sapiens) (UniProt P05067); experiment: Inhibition of amyloid beta (1 to 42) (unknown origin) self-aggregation at 12.5 uM after 24 hrs by thioflavin-T fluorescence assay relative to control
Mus musculus [24] = experiment: Acute toxicity in Kunming mouse assessed as heart damage up to 1000 mg/kg, po measured after 14 days by macroscopic method; type: organism-based; conditions: in vivo, 336 h
[25] = Selectivity ratio of IC50 for AChE in human erythrocytes to IC50 for electric eel AChE; type: ADME, cell-based
Mus musculus [26] = experiment: Acute toxicity in Kunming mouse up to 1000 mg/kg, po measured after 4 hrs up to 14 days; type: organism-based; conditions: in vivo
[27] = target: Amyloid-beta precursor protein (Homo sapiens) (UniProt P05067); experiment: Inhibition of amyloid beta (1 to 42) (unknown origin) self-aggregation after 24 hrs by thioflavin-T fluorescence assay
[28] = target: Amyloid-beta precursor protein (Homo sapiens) (UniProt P05067); experiment: Disaggregation of amyloid beta (1 to 42) (unknown origin) self aggregation at 25 uM after 24 hrs by thioflavin-T assay relative to control
Acetylcholinesterase [29] = target: T1, Acetylcholinesterase (Rattus norvegicus, UniProt P37136); experiment: Inhibition of AChE in rat cortex homogenates using acetylthiocholine chloride as substrate measured after 15 mins by Ellman's method; type: ADME
T1 sequence (P37136 whole entry): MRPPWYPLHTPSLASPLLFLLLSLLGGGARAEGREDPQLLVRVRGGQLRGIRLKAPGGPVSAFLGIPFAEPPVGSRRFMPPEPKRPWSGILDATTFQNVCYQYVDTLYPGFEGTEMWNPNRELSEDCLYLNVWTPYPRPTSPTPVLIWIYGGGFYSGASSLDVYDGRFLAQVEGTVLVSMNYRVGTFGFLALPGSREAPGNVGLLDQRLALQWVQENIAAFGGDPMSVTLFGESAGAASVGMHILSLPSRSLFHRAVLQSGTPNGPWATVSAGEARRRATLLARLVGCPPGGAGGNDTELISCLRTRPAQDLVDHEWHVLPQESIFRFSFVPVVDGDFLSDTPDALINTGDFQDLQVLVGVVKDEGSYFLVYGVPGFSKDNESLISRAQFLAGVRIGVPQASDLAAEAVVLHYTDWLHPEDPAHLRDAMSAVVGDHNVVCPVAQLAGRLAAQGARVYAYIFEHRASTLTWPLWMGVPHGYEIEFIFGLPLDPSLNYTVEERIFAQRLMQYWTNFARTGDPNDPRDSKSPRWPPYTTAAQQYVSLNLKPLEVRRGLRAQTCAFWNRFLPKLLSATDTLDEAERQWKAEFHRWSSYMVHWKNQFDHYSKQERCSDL

[30] = Permeability of the compound in PBS/EtOH at 100 ug/ml after 18 hrs by PAMPA-BBB assay
Mus musculus [31] = experiment: Acute toxicity in Kunming mouse assessed as effect on water consumption up to 1000 mg/kg, po measured after 4 hrs up to 14 days; type: organism-based; conditions: in vivo
Acetylcholinesterase [32] = target: Acetylcholinesterase (Electrophorus electricus, UniProt O42275); experiment: Inhibition of electric eel AChE using acetylthiocholine chloride as substrate measured after 15 mins by Ellman's method; type: ADME
Chain of Acetylcholinesterase (Electrophorus electricus, UniProt O42275) (O42275 whole entry): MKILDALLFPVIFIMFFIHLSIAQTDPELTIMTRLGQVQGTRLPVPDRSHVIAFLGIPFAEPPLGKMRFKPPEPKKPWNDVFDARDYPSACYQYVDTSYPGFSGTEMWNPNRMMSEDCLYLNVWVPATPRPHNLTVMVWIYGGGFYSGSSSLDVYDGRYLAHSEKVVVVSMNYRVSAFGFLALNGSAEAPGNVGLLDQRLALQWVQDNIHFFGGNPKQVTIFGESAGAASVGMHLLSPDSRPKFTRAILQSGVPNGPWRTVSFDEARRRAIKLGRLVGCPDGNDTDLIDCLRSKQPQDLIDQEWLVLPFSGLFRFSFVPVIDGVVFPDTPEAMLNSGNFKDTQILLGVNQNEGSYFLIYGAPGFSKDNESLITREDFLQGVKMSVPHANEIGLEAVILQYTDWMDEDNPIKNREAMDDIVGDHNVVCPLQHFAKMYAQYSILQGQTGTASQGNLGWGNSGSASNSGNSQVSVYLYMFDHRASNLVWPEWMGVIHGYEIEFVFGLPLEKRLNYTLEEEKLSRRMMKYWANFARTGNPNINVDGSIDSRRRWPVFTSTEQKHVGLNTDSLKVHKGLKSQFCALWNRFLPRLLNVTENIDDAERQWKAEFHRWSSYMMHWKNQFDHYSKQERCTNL

Cholinesterase [33] = target: Cholinesterase (Homo sapiens, UniProt P06276); experiment: Inhibition of BuChE in human serum using butyrylthiocholine chloride as substrate measured after 15 mins by Ellman's method
Chain of Cholinesterase (Homo sapiens, UniProt P06276) (P06276 whole entry): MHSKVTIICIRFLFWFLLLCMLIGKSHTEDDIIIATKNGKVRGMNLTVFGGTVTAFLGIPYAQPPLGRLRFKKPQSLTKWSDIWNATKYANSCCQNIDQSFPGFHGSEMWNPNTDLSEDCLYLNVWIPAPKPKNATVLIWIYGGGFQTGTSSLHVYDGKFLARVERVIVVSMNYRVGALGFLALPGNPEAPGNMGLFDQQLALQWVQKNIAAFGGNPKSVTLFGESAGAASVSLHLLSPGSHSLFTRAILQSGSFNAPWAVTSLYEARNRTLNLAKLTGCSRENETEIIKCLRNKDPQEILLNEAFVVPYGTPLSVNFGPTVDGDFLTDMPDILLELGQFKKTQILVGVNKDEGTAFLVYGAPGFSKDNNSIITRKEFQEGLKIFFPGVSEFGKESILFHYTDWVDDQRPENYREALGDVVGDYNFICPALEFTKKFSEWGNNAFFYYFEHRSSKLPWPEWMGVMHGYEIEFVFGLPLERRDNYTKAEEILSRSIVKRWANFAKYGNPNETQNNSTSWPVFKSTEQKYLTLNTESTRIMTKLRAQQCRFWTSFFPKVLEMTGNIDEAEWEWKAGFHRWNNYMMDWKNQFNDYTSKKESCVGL

Structure (SMILES): COc1cc(/C=C/C(=O)N2CCC(Cc3ccccc3)CC2)ccc1OCCCCN1CCc2ccccc2C1
- Activity (PC-12 [1]): Dose-dependent effect
- Activity (Mus musculus [2]): Dose-dependent effect
- Activity (Mus musculus [3]): Non-Toxic
- Activity (Mus musculus [4]): Non-Toxic
- Activity [5]: 0.55 equiv
- Activity (Mus musculus [6]): Non-Toxic
- inhibition [7]: Active
- viability at 1 µM (PC-12 [8]): 58.6%
- IC50 (Cholinesterase [9]): 21 nM
- IC50 [10]: 8630 nM
- Ratio IC50 [11]: 101
- viability at 10 µM (PC-12 [12]): 76.7%
- Ratio IC50 [13]: 54.6
- Activity (Mus musculus [14]): Non-Toxic
- IC50 (Acetylcholinesterase [15]): 3820 nM
- viability at 48 h, 100 µM [16]: 85.8%
- inhibition [17]: 50.8%
- Activity (Mus musculus [18]): Non-Toxic
- Time (Mus musculus [19]): 182.8 s
- Activity (PC-12 [20]): Non-Toxic
- Activity [21]: Active
- inhibition [22]: 68.7%
- inhibition [23]: 31.2%
- Activity (Mus musculus [24]): Non-Toxic
- Ratio IC50 [25]: 2 to 4
- Activity (Mus musculus [26]): Non-Toxic
- inhibition [27]: Dose-dependent effect
- Activity [28]: 38.7%
- IC50 (Acetylcholinesterase [29]): 1800 nM
- Papp at 18 h, 100 ug/ml [30]: 18.4 ×10⁻⁶ cm/s
- Activity (Mus musculus [31]): Non-Toxic
- IC50 (Acetylcholinesterase [32]): 2130 nM
- IC50 (Cholinesterase [33]): 70 nM
